The results in this text go back to US5262433A, “Tetrazoleacetic acid derivatives and method of aldose reductase inhibition therewith” (Wakamoto Pharmaceutical Co., Ltd., priority 1991, dated 1993).

Assay [1] has as its target T1, aldose reductase (Rattus norvegicus, UniProt P07943).
T1 construct: crystalline lenses were immediately removed and stored at -80° C; from tissue; host or cells: crystalline lenses of six-week-old male SD rats
The assay can be described thus: Aldose Reductase Inhibition Test. Particulars: rat lens enzyme; DL-glyceraldehyde 10 mM, pH 6.2, 30° C., 5 minutes. The class given is biochemical, rat (male SD rats, crystalline lenses). As to the method: Six-week-old male SD rats were anesthetized with ether and killed. The their crystalline lenses were immediately removed and stored at -80° C. The lenses were homogenized in 3 volumes of 135 mM sodium potassium phosphate buffer (pH 7.0) and centrifuged at 30,000 rpm for 30 minutes. The resulting supernatant was dialyzed overnight against 0.05M sodium chloride solution to obtain an aldose reductase solution. All operations were conducted at 4° C. and the enzyme solution was stored at -80° C.
The activity of aldose reductase was determined according to a partially modified method of J. H. Kinoshita et al. (J. Biol. Chem., 1965, 240, p. 877). More specifically, 0.1 ml of DL-glyceraldehyde (final concentration: 10 mM) was added to 0.9 ml of 100 mM sodium potassium phosphate buffer (pH 6.2) which contained lithium sulfate (final concentrationL 400 mM), reduced nicotinamide adenine dinucleotide phosphate (final concentration: 0.15 mM), the enzyme solution, and the compound to be evaluated (final concentration: 10^-5 M, 10^-6 M, 10^-7 M or 10^-8 M), and then the reaction was conducted at 30° C. for 5 minutes. During the reaction, the change in the absorbance at 340 nm with time was monitored.
The maximum reducing rate of the absorbance (U) during the reaction was determined. By subtracting, from this value, the maximum reducing rate (U0) at 340 nm of the reaction solution before the addition of the substrate (DL-glyceraldehyde), the reaction rate (V=U-U0) was calculated as a true reaction rate in the presence of the compound to be tested.
The same procedure was repeated except for the absence of the compound to be tested. A true reaction rate (V0) in case the enzyme was not inhibited was calculated (V0 =U^1 -U0^1). The aldose reductase inhibitory activity of the test compounds was determined according to the following formula:
Rate of Inhibition (%)=(V0 -V)/V0 ×100
The concentration of inhibitor giving 50% inhibition of enzyme activity (IC50) was estimated from the least-square regression line of the log dose-response curve.

For assay [2], the system named is sorbitol accumulation in sciatic nerve. Briefly: Inhibitory activity test against sorbitol accumulation in sciatic nerve of streptozotocin diabetic rats. Type of assay: in vivo, rat (Sprague-Dawley). As to conditions: for Rate of Inhibition of Sorbitol Accumulation, Sciatic nerve, 10 mg/kg: 10 mg/kg oral once a day for 5 days; for Rate of Inhibition of Sorbitol Accumulation, Sciatic nerve, 100 mg/kg: 100 mg/kg oral once a day for 5 days; for Rate of Inhibition of Sorbitol Accumulation in Sciatic Nerve (10 mg/kg): comparative compounds III (Table 4). As to the method: (§1) Groups of 6 to 8-week-old Sprague-Dawley male rats (4 animals per group) were fasted for 18 hours and streptozotocin was injected through the tail vein in a dose of 60 mg/kg, to obtain diabetic rats.
(§2) Immediately after the administration of streptozotocin, each compound to be tested was orally administered to these rats in the form of a suspension at a dose of 5 mg/kg, 10 mg/kg and 100 mg/kg (each was suspended in a 0.5% sodium carboxymethyl cellulose solution) once a day (at 9 a.m.) for 5 days.
(§3) During the test, the rats took diet and drank water freely. Four hours after the final administration of the drug in the 5th day's morning (at 9 a.m.), the rats were sacrificed and then the sciatic nerve and lens were removed to determine the amounts of sorbitol accumulated therein.
(§4) The results are expressed in the percentage obtained when the value obtained on the control to which no drug was administered is defined 100.

Assay [3] has as its system sorbitol accumulation in lens. The assay can be described thus: Inhibitory activity test against sorbitol accumulation in lens of streptozotocin diabetic rats. The class given is in vivo, rat (Sprague-Dawley). Particulars: 100 mg/kg oral once a day for 5 days, STZ diabetic rats. As to the method:
as §1, §2, §3, §4

[4] abbreviates: sciatic nerve, STZ diabetic rats.

The term IC50 denotes the midpoint of a concentration-inhibition curve. A high value points to weaker potency. `O=C(Cn1nnnc1-c1ccoc1)OCCO` [Example 12, [5-(3-furyl)tetrazol-1-yl] acetic acid 2-hydroxyethyl ester] displayed an IC50 in assay [1] of 360 nM. In assay [2] (po, 5 mg/kg, 120 h), the “Rate of Inhibition of Sorbitol Accumulation, Sciatic nerve, 5 mg/kg” value (“Rate of Inhibition … 5 mg/kg” below) was 41%. In assay [2] (setting [4]), the “Rate of Inhibition of Sorbitol Accumulation, Sciatic nerve, 10 mg/kg” value (from here on “Rate of Inhibition … Sciatic nerve, 10 mg/kg”) is 70% and the “Rate of Inhibition of Sorbitol Accumulation, Sciatic nerve, 100 mg/kg” value (“Rate of Inhibition … Sciatic nerve, 100 mg/kg” below) turned out to be 107%. Moreover, the “Rate of Inhibition of Sorbitol Accumulation, lens, 100 mg/kg” value (“Rate of Inhibition … lens, 100 mg/kg” below) in assay [3] is reported as 68%.
As for “[5-[(3-methylsulfonylamino)-2-thienyl]tetrazol-1-yl] acetic acid 2-hydroxyethyl ester [Example 4]”, in assay [2] (sciatic nerve), the “Rate of Inhibition of Sorbitol Accumulation in Sciatic Nerve (10 mg/kg)” value (“Rate of Inhibition … (10 mg/kg)” below) is 40%.
In the case of `O=C(Cn1nnnc1-c1ccsc1)OCCCCCO` [Example 18, [5-(3-thienyl)tetrazol-1-yl]acetic acid 5-hydroxypentyl ester], the half-maximal inhibitory concentration (IC50) in assay [1] came to 1300 nM. In addition, the “Rate of Inhibition … 5 mg/kg” value in assay [2] (po, 5 mg/kg, 120 h) is listed as -27%. In addition, in assay [2] (setting [4]), the “Rate of Inhibition … Sciatic nerve, 10 mg/kg” value amounted to 16% and the “Rate of Inhibition … Sciatic nerve, 100 mg/kg” value is 102%. For the same compound, in assay [3], the “Rate of Inhibition … lens, 100 mg/kg” value is given as 7%.
With “[5-[5-(3-phenylpropyl)-2-thienyl]tetrazol-1-yl]acetic acid 2-hydroxyethyl ester [Example 5]”, the “Rate of Inhibition … (10 mg/kg)” value in assay [2] (sciatic nerve) amounted to 40%.
`O=C(Cn1nnnc1-c1ccsc1)OCCCCO` [Example 16, [5-(3-thienyl)tetrazol-1-yl]acetic acid 4-hydroxybutyl ester] gave an IC50 in assay [1] of 390 nM. For the same compound, the “Rate of Inhibition … 5 mg/kg” value in assay [2] (po, 5 mg/kg, 120 h) was -5%. In assay [2] (setting [4]), the “Rate of Inhibition … Sciatic nerve, 10 mg/kg” value is reported as 35% and the “Rate of Inhibition … Sciatic nerve, 100 mg/kg” value came out at 103%. Besides, the “Rate of Inhibition … lens, 100 mg/kg” value in assay [3] is on record as -10%.
`CC(/C=C1\SC(=S)N(CC(=O)O)C1=O)=C\c1ccccc1` [ONO-2235, (E)-3-carboxymethyl-5-[(2E)-methyl-30 phenylpropenylidene]rhodan, reference compound]: the “Rate of Inhibition … 5 mg/kg” value in assay [2] (sciatic nerve, 5 mg/kg oral once a day for 5 days, STZ diabetic rats) was 0%. Further, in assay [2] (setting [4]), the “Rate of Inhibition … Sciatic nerve, 10 mg/kg” value came to 0% and the “Rate of Inhibition … Sciatic nerve, 100 mg/kg” value is 40%.
`O=C(Cn1nnnc1-c1ccsc1)OCCO` [Example 1, [5-(3-thienyl)tetrazol-1-yl] acetic acid 2-hydroxyethyl ester] returned an IC50 in assay [1] of 360 nM. In assay [2], this compound registered a sorbitol accumulation rate of 73%. In addition, the “Rate of Inhibition … 5 mg/kg” value in assay [2] (po, 5 mg/kg, 120 h) was found to be 48%. Moreover, in assay [2] (setting [4]), the “Rate of Inhibition … Sciatic nerve, 10 mg/kg” value was determined as 73% and the “Rate of Inhibition … Sciatic nerve, 100 mg/kg” value turned out to be 102%. Moreover, the “Rate of Inhibition … lens, 100 mg/kg” value in assay [3] amounted to 50%.
As for `COCCOC(=O)Cn1nnnc1-c1ccsc1` [Example 19, [5-(3-thienyl)tetrazol-1-yl]acetic acid 2-methoxyethyl ester], 210 nM corresponded to half-maximal inhibition in assay [1] (IC50). For the same compound, the “Rate of Inhibition … 5 mg/kg” value in assay [2] (po, 5 mg/kg, 120 h) is reported as 22%. For the same compound, in assay [2] (setting [4]), the “Rate of Inhibition … Sciatic nerve, 10 mg/kg” value was found to be 38% and the “Rate of Inhibition … Sciatic nerve, 100 mg/kg” value was determined as 103%. The “Rate of Inhibition … lens, 100 mg/kg” value in assay [3] came out at 13%.
In the case of “[5-(2-thienyl)tetrazol-1-yl] acetic acid 2-hydroxyethyl ester [Example 3]”, the “Rate of Inhibition … (10 mg/kg)” value in assay [2] (sciatic nerve) turned out to be 35%.
In the case of `CCOC(=O)Cn1nnnc1-c1ccsc1` [compound 2, reference compound], the sorbitol accumulation rate in assay [2] came to 63%.
With `O=C(O)Cn1nnnc1-c1ccsc1` [reference compound], the “Rate of Inhibition … (10 mg/kg)” value in assay [2] (sciatic nerve) stood at 53%.
In the case of “[5-(2-methylthio-3-thienyl)tetrazol-1-yl]acetic acid 2-hydroxyethyl ester [Example 2]”, the “Rate of Inhibition … (10 mg/kg)” value in assay [2] (sciatic nerve) is recorded as 63%.
In the case of `O=C(Cn1nnnc1-c1ccsc1)OCCCO` [Example 15, [5-(3-thienyl)tetrazol-1-yl]acetic acid 3-hydroxypropyl ester], the “Rate of Inhibition … 5 mg/kg” value in assay [2] (po, 5 mg/kg, 120 h) stood at 24%. In assay [2] (setting [4]), the “Rate of Inhibition … Sciatic nerve, 10 mg/kg” value is 37% and the “Rate of Inhibition … Sciatic nerve, 100 mg/kg” value is listed as 110%. The “Rate of Inhibition … lens, 100 mg/kg” value in assay [3] turned out to be 36%.
In assay [1], `O=C(Cn1nnnc1-c1ccccc1)OCCO` [Example 6, (5-phenyltetrazol-1-yl) acetic acid 2-hydroxyethyl ester] had a half-inhibitory concentration (IC50) of 3100 nM. Moreover, the “Rate of Inhibition … 5 mg/kg” value in assay [2] (po, 5 mg/kg, 120 h) was 29%. Moreover, in assay [2] (setting [4]), the “Rate of Inhibition … Sciatic nerve, 10 mg/kg” value is recorded as 46% and the “Rate of Inhibition … Sciatic nerve, 100 mg/kg” value is 103%. In assay [3], the “Rate of Inhibition … lens, 100 mg/kg” value is 24%.
